Assay results from EP0848008A1, “Organotin compounds and compositions containing these compounds” (PHARMACHEMIE B.V., priority 1996, dated 1998).

Assays:
Assay type in all cases: cell-based
IGROV = experiment: In vitro anti-tumour cell growth inhibition (method of Skehan et al.), IGROV; details: ovarian cancer, amount which inhibits 50% of the cell growth
Procedure: (§1) Compounds 1, 2 and 3 were tested in vitro. together with 2 reference compounds used clinically (carboplatin and cisplatin), against MCF-7 and EVSA-T, two breast cancers, WiDr, a colon cancer, IGROV, an ovarian cancer, M19MEL, a melanoma, A498, a renal cancer, and H226, a non small cell lung cancer. The tests were carried out according to the method of Skehan et al, Journal of the National Cancer Institute, 1990; 82: 1107-1112.

EVSA-T = experiment: In vitro anti-tumour cell growth inhibition (method of Skehan et al.), EVSA-T; details: breast cancer, amount which inhibits 50% of the cell growth
Procedure: as §1

A498 = experiment: In vitro anti-tumour cell growth inhibition (method of Skehan et al.), A498; details: A498, renal cancer; amount which inhibits 50% of the cell growth
Procedure: as §1

MCF-7 = experiment: In vitro anti-tumour cell growth inhibition (method of Skehan et al.), MCF-7; details: MCF-7, breast cancer; amount which inhibits 50% of the cell growth
Procedure: as §1

H226 = experiment: In vitro anti-tumour cell growth inhibition (method of Skehan et al.), H226; details: H226, non small cell lung cancer; amount which inhibits 50% of the cell growth
Procedure: as §1

M19MEL = experiment: In vitro anti-tumour cell growth inhibition (method of Skehan et al.), M19MEL; details: melanoma, amount which inhibits 50% of the cell growth
Procedure: as §1

WiDr = experiment: In vitro anti-tumour cell growth inhibition (method of Skehan et al.), WiDr; details: colon cancer, amount which inhibits 50% of the cell growth
Procedure: as §1

| SMILES | ID50 (IGROV) | ID50 (EVSA-T) | ID50 (A498) | ID50 (MCF-7) | ID50 (H226) | ID50 (M19MEL) | ID50 (WiDr) |
| --- | --- | --- | --- | --- | --- | --- | --- |
| N.N.[Cl][Pt][Cl] [Cisplatin, cisplatin, reference compound] | 230 ng/mL | 920 ng/mL | 1200 ng/mL | 1400 ng/mL | 3158 ng/mL | 780 ng/mL | 1550 ng/mL |
| CC1(C)OC(=O)CC1C(=O)[O-].CC1(C)OC(=O)CC1C(=O)[O-].CCC[CH2][Sn+2][CH2]CCC (centres unmarked) [Compound 1, Di-n-butyltin diterebate] | 18 ng/mL | 25 ng/mL | 61 ng/mL | 27 ng/mL | 104 ng/mL | 61 ng/mL | 134 ng/mL |
| CC1(C)OC(=O)CC1C(=O)[O-].CCC[CH2][Sn+]([CH2]CCC)[CH2]CCC [Compound 2, tri-n-butyltin terebate] | 4 ng/mL | <3 ng/mL | 15 ng/mL | 3 ng/mL | 8 ng/mL | 11 ng/mL | 11 ng/mL |
| CC1(C)OC(=O)CC1C(=O)[O-].c1cc[c]([Sn+]([c]2ccccc2)[c]2ccccc2)cc1 [Compound 3, triphenyltin terebate] | 19 ng/mL | <3 ng/mL | 42 ng/mL | 17 ng/mL | 39 ng/mL | 42 ng/mL | 17 ng/mL |
| N.N.O=C([O-])C1(C(=O)[O-])CCC1.[Pt+2] [Carboplatin, carboplatin, reference compound] | 2400 ng/mL | 4500 ng/mL | 18000 ng/mL | 10500 ng/mL | 25000 ng/mL | 5500 ng/mL | 3500 ng/mL |
